Data published in ChEMBL document CHEMBL4308841, “Synthesis, in vitro antiproliferative activity, and kinase inhibitory effects of pyrazole-containing diarylureas and diarylamides” (Eur J Med Chem, 2018).

Tested on: HL-60(TB)
Assay: Growth inhibition of human HL-60(TB) cells assessed as cell growth at 0.01 uM incubated for 48 hrs by sulforhodamine B assay relative to control
Type: functional
Details: HL-60, 48 h, read-out: Activity

SMILES	growth at 0.01 µM [%]
O=C(Nc1cccc(-n2cc(-c3ccncc3)c(-c3cc(O)cc(Cl)c3)n2)c1)c1ccc(N2CCOCC2)c(C(F)(F)F)c1	92

Tested on: MDA-MB-468
Assay: Growth inhibition of human MDA-MB-468 cells assessed as cell growth at 100 uM incubated for 48 hrs by sulforhodamine B assay relative to control
Type: functional
Details: MDA-MB-468, 48 h, read-out: Activity

SMILES	growth at 100 µM [%]
O=C(Nc1cccc(-n2cc(-c3ccncc3)c(-c3cc(O)cc(Cl)c3)n2)c1)c1ccc(N2CCOCC2)c(C(F)(F)F)c1	-15

Tested on: NCI-H322M
Assay: Growth inhibition of human NCI-H322M cells assessed as cell growth at 0.1 uM incubated for 48 hrs by sulforhodamine B assay relative to control
Type: functional
Details: read-out: Activity

SMILES	growth at 0.1 µM [%]
O=C(Nc1cccc(-n2cc(-c3ccncc3)c(-c3cc(O)cc(Cl)c3)n2)c1)c1ccc(N2CCOCC2)c(C(F)(F)F)c1	97

Tested on: NCI-H460
Assay: Growth inhibition of human NCI-H460 cells assessed as cell growth at 0.01 uM incubated for 48 hrs by sulforhodamine B assay relative to control
Type: functional
Details: NCI-H460, 48 h, read-out: Activity

SMILES	growth at 0.01 µM [%]
O=C(Nc1cccc(-n2cc(-c3ccncc3)c(-c3cc(O)cc(Cl)c3)n2)c1)c1ccc(N2CCOCC2)c(C(F)(F)F)c1	104

Tested on: SNB-75
Assay: Growth inhibition of human SNB75 cells assessed as cell growth at 0.01 uM incubated for 48 hrs by sulforhodamine B assay relative to control
Type: functional
Details: SNB-75, 48 h, read-out: Activity

SMILES	growth at 0.01 µM [%]
O=C(Nc1cccc(-n2cc(-c3ccncc3)c(-c3cc(O)cc(Cl)c3)n2)c1)c1ccc(N2CCOCC2)c(C(F)(F)F)c1	57

Tested on: PC-3
Assay: Growth inhibition of human PC3 cells incubated for 48 hrs by sulforhodamine B assay
Type: functional, cell-based
Details: PC-3, 48 h

SMILES	IC50 [µM]
O=C(Nc1cccc(-n2cc(-c3ccncc3)c(-c3cc(O)cc(Cl)c3)n2)c1)c1ccc(N2CCOCC2)c(C(F)(F)F)c1	1.09

Same assay, conditions: PC-3, 48 h, read-out: GI50

SMILES	GI50 [µM]
O=C(Nc1cccc(-n2cc(-c3ccncc3)c(-c3cc(O)cc(Cl)c3)n2)c1)c1ccc(N2CCOCC2)c(C(F)(F)F)c1	1.09

Same assay, conditions: PC-3, 48 h, read-out: LC50 (the source's name)

SMILES	CC50 [µM]
O=C(Nc1cccc(-n2cc(-c3ccncc3)c(-c3cc(O)cc(Cl)c3)n2)c1)c1ccc(N2CCOCC2)c(C(F)(F)F)c1	> 100

Same assay, conditions: PC-3, 48 h, read-out: TGI

SMILES	TGI [µM]
O=C(Nc1cccc(-n2cc(-c3ccncc3)c(-c3cc(O)cc(Cl)c3)n2)c1)c1ccc(N2CCOCC2)c(C(F)(F)F)c1	45.6

Same assay, conditions: PC-3, 48 h, read-out: pGI50 (converted)

SMILES	GI50 [µM]
O=C(Nc1cccc(-n2cc(-c3ccncc3)c(-c3cc(O)cc(Cl)c3)n2)c1)c1ccc(N2CCOCC2)c(C(F)(F)F)c1	1.1

Same assay, conditions: PC-3, 48 h, read-out: pLC50 (the source's name) (converted)

SMILES	CC50 [µM]
O=C(Nc1cccc(-n2cc(-c3ccncc3)c(-c3cc(O)cc(Cl)c3)n2)c1)c1ccc(N2CCOCC2)c(C(F)(F)F)c1	> 100

Same assay, conditions: PC-3, 48 h, read-out: pTGI (converted)

SMILES	TGI [µM]
O=C(Nc1cccc(-n2cc(-c3ccncc3)c(-c3cc(O)cc(Cl)c3)n2)c1)c1ccc(N2CCOCC2)c(C(F)(F)F)c1	45.7

Tested on: MOLT-4
Assay: Growth inhibition of human MOLT4 cells incubated for 48 hrs by sulforhodamine B assay
Type: functional, cell-based
Details: MOLT-4, 48 h, read-out: GI50

SMILES	GI50 [µM]
O=C(Nc1cccc(-n2cc(-c3ccncc3)c(-c3cc(O)cc(Cl)c3)n2)c1)c1ccc(N2CCOCC2)c(C(F)(F)F)c1	1.11

Same assay, conditions: MOLT-4, 48 h, read-out: LC50 (the source's name)

SMILES	CC50 [µM]
O=C(Nc1cccc(-n2cc(-c3ccncc3)c(-c3cc(O)cc(Cl)c3)n2)c1)c1ccc(N2CCOCC2)c(C(F)(F)F)c1	> 100

Same assay, conditions: MOLT-4, 48 h, read-out: TGI

SMILES	TGI [µM]
O=C(Nc1cccc(-n2cc(-c3ccncc3)c(-c3cc(O)cc(Cl)c3)n2)c1)c1ccc(N2CCOCC2)c(C(F)(F)F)c1	43.6

Same assay, conditions: MOLT-4, 48 h, read-out: pGI50 (converted)

SMILES	GI50 [µM]
O=C(Nc1cccc(-n2cc(-c3ccncc3)c(-c3cc(O)cc(Cl)c3)n2)c1)c1ccc(N2CCOCC2)c(C(F)(F)F)c1	1.12

Same assay, conditions: MOLT-4, 48 h, read-out: pLC50 (the source's name) (converted)

SMILES	CC50 [µM]
O=C(Nc1cccc(-n2cc(-c3ccncc3)c(-c3cc(O)cc(Cl)c3)n2)c1)c1ccc(N2CCOCC2)c(C(F)(F)F)c1	> 100

Same assay, conditions: MOLT-4, 48 h, read-out: pTGI (converted)

SMILES	TGI [µM]
O=C(Nc1cccc(-n2cc(-c3ccncc3)c(-c3cc(O)cc(Cl)c3)n2)c1)c1ccc(N2CCOCC2)c(C(F)(F)F)c1	4.47

Tested on: SK-MEL-5
Assay: Growth inhibition of human SK-MEL-5 cells assessed as cell growth at 100 uM incubated for 48 hrs by sulforhodamine B assay relative to control
Type: functional
Details: SK-MEL-5, 48 h, read-out: Activity

SMILES	growth at 100 µM [%]
O=C(Nc1cccc(-n2cc(-c3ccncc3)c(-c3cc(O)cc(Cl)c3)n2)c1)c1ccc(N2CCOCC2)c(C(F)(F)F)c1	-72

Tested on: MDA-MB-435
Assay: Growth inhibition of human MDA-MB-435 cells assessed as cell growth at 0.01 uM incubated for 48 hrs by sulforhodamine B assay relative to control
Type: functional
Details: MDA-MB-435, 48 h, read-out: Activity

SMILES	growth at 0.01 µM [%]
O=C(Nc1cccc(-n2cc(-c3ccncc3)c(-c3cc(O)cc(Cl)c3)n2)c1)c1ccc(N2CCOCC2)c(C(F)(F)F)c1	96

Tested on: CAKI-1
Assay: Growth inhibition of human Caki1 cells assessed as cell growth at 0.1 uM incubated for 48 hrs by sulforhodamine B assay relative to control
Type: functional
Details: CAKI-1, 48 h, read-out: Activity

SMILES	growth at 0.1 µM [%]
O=C(Nc1cccc(-n2cc(-c3ccncc3)c(-c3cc(O)cc(Cl)c3)n2)c1)c1ccc(N2CCOCC2)c(C(F)(F)F)c1	93

Tested on: DU-145
Assay: Growth inhibition of human DU145 cells assessed as cell growth at 0.01 uM incubated for 48 hrs by sulforhodamine B assay relative to control
Type: functional
Details: DU-145, 48 h, read-out: Activity

SMILES	growth at 0.01 µM [%]
O=C(Nc1cccc(-n2cc(-c3ccncc3)c(-c3cc(O)cc(Cl)c3)n2)c1)c1ccc(N2CCOCC2)c(C(F)(F)F)c1	100

Tested on: SF-539
Assay: Growth inhibition of human SF539 cells assessed as cell growth at 100 uM incubated for 48 hrs by sulforhodamine B assay relative to control
Type: functional
Details: SF-539, 48 h, read-out: Activity

SMILES	growth at 100 µM [%]
O=C(Nc1cccc(-n2cc(-c3ccncc3)c(-c3cc(O)cc(Cl)c3)n2)c1)c1ccc(N2CCOCC2)c(C(F)(F)F)c1	-50

Tested on: SK-MEL-2
Assay: Growth inhibition of human SK-MEL-2 cells assessed as cell growth at 100 uM incubated for 48 hrs by sulforhodamine B assay relative to control
Type: functional
Details: SK-MEL-2, 48 h, read-out: Activity

SMILES	growth at 100 µM [%]
O=C(Nc1cccc(-n2cc(-c3ccncc3)c(-c3cc(O)cc(Cl)c3)n2)c1)c1ccc(N2CCOCC2)c(C(F)(F)F)c1	-30

Tested on: SN12C
Assay: Growth inhibition of human SN12C cells assessed as cell growth at 1 uM incubated for 48 hrs by sulforhodamine B assay relative to control
Type: functional
Details: read-out: Activity

SMILES	growth at 1 µM [%]
O=C(Nc1cccc(-n2cc(-c3ccncc3)c(-c3cc(O)cc(Cl)c3)n2)c1)c1ccc(N2CCOCC2)c(C(F)(F)F)c1	58

Tested on: MCF7
Assay: Growth inhibition of human MCF7 cells assessed as cell growth at 1 uM incubated for 48 hrs by sulforhodamine B assay relative to control
Type: functional
Details: MCF7, 48 h, read-out: Activity

SMILES	growth at 1 µM [%]
O=C(Nc1cccc(-n2cc(-c3ccncc3)c(-c3cc(O)cc(Cl)c3)n2)c1)c1ccc(N2CCOCC2)c(C(F)(F)F)c1	82

Tested on: MDA-MB-231
Assay: Growth inhibition of human MDA-MB-231 cells incubated for 48 hrs by sulforhodamine B assay
Type: functional, cell-based
Details: MDA-MB-231, 48 h, read-out: GI50

SMILES	GI50 [µM]
O=C(Nc1cccc(-n2cc(-c3ccncc3)c(-c3cc(O)cc(Cl)c3)n2)c1)c1ccc(N2CCOCC2)c(C(F)(F)F)c1	0.327

Same assay, conditions: MDA-MB-231, 48 h, read-out: LC50 (the source's name)

SMILES	CC50 [µM]
O=C(Nc1cccc(-n2cc(-c3ccncc3)c(-c3cc(O)cc(Cl)c3)n2)c1)c1ccc(N2CCOCC2)c(C(F)(F)F)c1	27

Same assay, conditions: MDA-MB-231, 48 h, read-out: TGI

SMILES	TGI [µM]
O=C(Nc1cccc(-n2cc(-c3ccncc3)c(-c3cc(O)cc(Cl)c3)n2)c1)c1ccc(N2CCOCC2)c(C(F)(F)F)c1	16.6
